This is an account of results in patent EP0315467A2, “Pentamidine salts useful in the treatment and prophylaxis of pneumocystis carinii pneumonia” (LyphoMed, Inc., priority 1987, dated 1989).

The nature of data set [1]: Solubility in water of pentamidine salts. The format is physicochemical. The conditions noted are these: for Solubility in H₂O: Table I.
For data set [2] the following is noted: background statement on the prior art; cited from earlier work.

Molecules are shown by their SMILES. Where a name gives a salt, the structure may show the parent alone. Bounds are passed on as bounds.

On to `N=C(N)c1ccc(OCCCCCOc2ccc(C(=N)N)cc2)cc1` [Pentamidine Acetate], for which the “Solubility in H₂O” value in data set [1] is 17.0 mg/mL. As to `N=C(N)c1ccc(OCCCCCOc2ccc(C(=N)N)cc2)cc1` [Pentamidine Tartarate], the “Solubility in H₂O” value in data set [1] was found to be 3.4 mg/mL. For `N=C(N)c1ccc(OCCCCCOc2ccc(C(=N)N)cc2)cc1` [Pentamidine Lactate], the “Solubility in H₂O” value in data set [1] amounted to 100.3 mg/mL. The water solubility entry in data set [1] (bound stated in the text) is recorded as “greater than 100 mg/mL”. As for `N=C(N)c1ccc(OCCCCCOc2ccc(C(=N)N)cc2)cc1` [Pentamidine Nitrate], the “Solubility in H₂O” value in data set [1] turned out to be 1.8 mg/mL.

For `N=C(N)c1ccc(OCCCCCOc2ccc(C(=N)N)cc2)cc1` [Pentamidine Hydrochloride, reference compound], the “Solubility in H₂O” value in data set [1] (Hydrochloride) is given as 14.5 mg/mL. In data set [2], the “solubility in water (in words)” value is “substantially water insoluble”. Regarding `N=C(N)c1ccc(OCCCCCOc2ccc(C(=N)N)cc2)cc1` [Pentamidine Phosphate], the “Solubility in H₂O” value in data set [1] stood at 16.8 mg/mL. As to `N=C(N)c1ccc(OCCCCCOc2ccc(C(=N)N)cc2)cc1` [Pentamidine Gluconate], the “Solubility in H₂O” value in data set [1] is 114.8 mg/mL. Moreover, the solubility in data set [1] (bound stated in the text) is over 100 mg/mL. For the molecule `N=C(N)c1ccc(OCCCCCOc2ccc(C(=N)N)cc2)cc1` [Pentamidine Borate], the “Solubility in H₂O” value in data set [1] is 6.9 mg/mL. Turning to `N=C(N)c1ccc(OCCCCCOc2ccc(C(=N)N)cc2)cc1` [Pentamidine Sulfate], the “Solubility in H₂O” value in data set [1] was determined as 1.4 mg/mL. The same measure, in the same setting: in the case of `N=C(N)c1ccc(OCCCCCOc2ccc(C(=N)N)cc2)cc1` [Pentamidine Citrate] it was 0.6 mg/mL.

Broadly, the solubility is how much of the substance goes into solution per volume.
